Test results taken from patent publication US7563791B2, “Pyrrolotriazine derivatives useful for treating hyper-proliferative disorders and diseases associated with angiogenesis” (Bayer Pharmaceuticals Corporation, priority 2004, dated 2009).

Tests used:
Assay type in all cases: cell-based
[1] = tested on: VEGFR stimulated HUVEC proliferation; experiment: BRDU growth factor stimulated proliferation of HUVEC (VEGF stimulation); conditions: Homo sapiens, 72 h, 80 ng/ml VEGF, 3 days, BrdU incorporation
Experimental: (§1) BRDU Growth Factor Stimulated Proliferation of HUVEC
(§2) Exponentially growing human umbilical vein endothelial cells (HUVEC; Cat# CC-2519A, Cambrex, Walkersville, Md.) were seeded at two thousand cells/well into Collagen IV-coated 96 well plates (Cat#35-4429, Becton Dickinson, Bedford, Mass.) in assay media containing RPMI-1640 (Cat#11875-093, Gibco, Carlsbad, Calif.), 0.5% charcoal-stripped serum (Cat# SH30068.03, HyClone, Logan, Utah), and 1% N-2 supplement (Cat#17502-048, Gibco, Carlsbad, Calif.). Fours hours after incubating the plates at 37° C. in 5% CO2, the cells were treated with different concentrations of compound (diluted in assay media with a final DMSO concentration=0.1%) and then were immediately stimulated with 80 ng/ml of vascular endothelial growth factor (VEGF, Cat#100-20, PeproTech, Rocky Hill, N.J.) or 1.5 ng/ml of basic fibroblast growth factor (bFGF, Catt#100-18B, PeproTech, Rocky Hill, N.J.). Treated cells were incubated for 3 days at 37° C. in 5% CO2. DNA synthesis was measured via the incorporation of bromodeoxyuridine (BrdU) into newly synthesized DNA using the Amersham Cell Proliferation BioTrack ELISA system (Cat# RPN250, Amersham, Piscataway, N.J.). Diluted BrdU solution (20 μl of stock BrdU diluted 1:20 fold into assay media) was added to each well and incubation proceeded for 6 hours at 37° C. in 5% CO2. The media was removed and the cells were fixed according to the specifications of the Amersham assay kit for 30 minutes at room temperature. After removing the fixative, blocking buffer (supplied by Amersham kit; 200 μl/well) was added and the plates were stored at 4° C. overnight. The blocking buffer was aspirated and peroxidase-labeled anti-BrdU antibody (supplied by Amersham kit; 100 μl/well) was added and incubated for 3 hours at room temperature. The plates were washed three times with wash buffer (supplied by Amersham kit; 300 μl/well/wash). Immediately following the washes, 100 μl of the TMB-substrate was dispensed into each well and the plates were further incubated for 30 minutes at room temperature. The reaction was terminated by the addition of 25 μl of 1M H2SO4. Plates were read immediately at 450 nm using a SpectraMAX 250 spectrophotometer plate reader (Molecular Devices, Sunnyvale, Calif.). The software utilized was SoftMAX pro v.2.4.1.

[2] = tested on: HCT116 cells; experiment: Tumor cell proliferation (Alamar Blue), HCT116; conditions: Homo sapiens, HCT-116, 72 h
Experimental: (§3) Human tumor cells (e.g., HCT116 or MDA-MB-231 cells), are seeded in a Costar 96-well plate at 3.0×10^3 cells/well and grown in 150 μl of RPMI complete media (Invitrogen Corporation, Grand Island, N.Y.) containing 10% fetal bovine serum (Hyclone, Logan, Utah) at 37° C. for 16 h in an incubator with 5% CO2. To each well, 50 μl of additional growth media containing 40 μM to 18 nM concentrations of compound with 0.4% DMSO is added. Cells are grown for another 72 h at 37° C. with 5% CO2. 20 μl of Alamar Blue (Trek Diagnostic Systems, Inc., Cleveland, Ohio) reagent is added to each well and incubated for 3 h at 37° C. Plates are read in a SpectraMax Gemini (Molecular Devices, Calif.) with 544 nm excitation and 590 nm emission wavelength. IC50 values are determined by linear regression analysis of log drug concentration versus percent inhibition.

[3] = tested on: MDA-MB-231 cells; experiment: Tumor cell proliferation (Alamar Blue), MDA-MB-231; conditions: Homo sapiens, MDA-MB-231, 72 h
Experimental: as §3

[4] = tested on: FGFR stimulated HUVEC proliferation; experiment: BRDU growth factor stimulated proliferation of HUVEC (bFGF stimulation); conditions: Homo sapiens, 72 h, 1.5 ng/ml bFGF, 3 days, BrdU incorporation
Experimental: as §1, §2

[5] = tested on: VEGF stimulated Phospho-ERK in HUVEC; experiment: Growth factor stimulated p-ERK assay in HUVECs (VEGF stimulation, ERK1/2 Bioplex); conditions: Homo sapiens, compound 2 hrs, then 50 ng/ml VEGF 10 min; for inhibition at 0.1 µM: @ 100 nM
Procedure, shortened: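 HUVECs in serum-free RPMI 1640/0.1% BSA pretreated with compound 2 hrs, then stimulated 10 min with 50 ng/ml VEGF (or bFGF). Lysate phospho-ERK1/2 quantified by bead-based Bio-Plex immunoassay on Luminex.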

IC50 ([2]; bounds given in μM) [µM]	IC50 ([3]; bounds given in μM) [µM]	IC50 [2] [µM]	IC50 [3] [µM]	SMILES	IC50 [1] [µM]	IC50 [4] [µM]	inhibition at 0.1 µM [5] [%]	IC50 ([4]; bound given in μM) [µM]	IC50 ([1]; bound given in μM) [µM]	inhibition at 1 µM ([5]; @ 1 μM) [%]
1.5 to 5	1.5 to 5	–	–	Nc1ncnn2cc(CO)c(-c3ccc(NC(=O)Nc4cc(C(F)(F)F)ccn4)c(F)c3)c12 [Example 243, N-{4-[4-amino-6-(hydroxymethyl)pyrrolo[2,1-f][1,2,4]triazin-5-yl]-2-fluorophenyl}-N′-[4-(trifluoromethyl)pyridin-2-yl]urea]	0.01 to 0.1	0.1 to 0.5	–	–	–	–
–	–	–	–	COCc1cn2ncnc(N)c2c1-c1ccc(NC(=O)Nc2cc(C(F)(F)F)ccn2)cc1 [Example 101, N-{4-[4-amino-6-(methoxymethyl)pyrrolo[2,1-f][1,2,4]triazin-5-yl]phenyl}-N′-[4-(trifluoromethyl)pyridin-2-yl]urea]	< 0.01	< 0.1	–	–	–	–
–	–	–	–	N#Cc1cn2ncnc(N)c2c1-c1ccc(NC(=O)Nc2ccc(F)c(C(F)(F)F)c2)cc1 [Example 151, N-[4-(4-amino-6-cyanopyrrolo[2,1-f][1,2,4]triazin-5-yl)phenyl]-N′-[4-fluoro-3-(trifluoromethyl)phenyl]urea]	0.01 to 0.1	< 0.1	–	–	–	–
–	–	< 0.5	< 0.5	Nc1ncnn2cc(-c3cnco3)c(-c3ccc(NC(=O)Nc4cc(C(F)(F)F)ccc4F)cc3)c12 [Example 155, N-{4-[4-amino-6-(1,3-oxazol-5-yl)pyrrolo[2,1-f][1,2,4]triazin-5-yl]phenyl}-N′-[2-fluoro-5-(trifluoromethyl)phenyl]urea]	0.01 to 0.1	0.1 to 0.5	–	–	–	–
1.5 to 5	–	–	–	Nc1ncnn2cc(CN3CCOCC3)c(-c3ccc(NC(=O)Nc4cc(C(F)(F)F)ccc4F)cc3)c12 [Example 30, N-{4-[4-amino-6-(morpholin-4-ylmethyl)pyrrolo[2,1-f][1,2,4]triazin-5-yl]phenyl}-N′-[2-fluoro-5-(trifluoromethyl)phenyl]urea]	0.1 to 0.5	0.1 to 0.5	> 50	–	–	–
< 1.5	< 1.5	> 0.5	> 0.5	CC(C)(C)c1cc(NC(=O)Nc2ccc(-c3c(CO)cn4ncnc(N)c34)cc2)n(-c2ccc(F)cc2)n1 [Example 239, N-{4-[4-amino-6-(hydroxymethyl)pyrrolo[2,1-f][1,2,4]triazin-5-yl]phenyl}-N′-[3-tert-butyl-1-(4-fluorophenyl)-1H-pyrazol-5-yl]urea]	0.01 to 0.1	0.1 to 0.5	–	–	–	–
1.5 to 5	1.5 to 5	–	–	CC(=O)c1cn2ncnc(N)c2c1-c1ccc(NC(=O)Nc2cc(C(F)(F)F)ccn2)cc1 [Example 233, N-[4-(6-acetyl-4-aminopyrrolo[2,1-f][1,2,4]triazin-5-yl)phenyl]-N′-[4-(trifluoromethyl)pyridin-2-yl]urea]	0.01 to 0.1	0.1 to 0.5	–	–	–	–
1.5 to 5	1.5 to 5	–	–	N#CCc1cn2ncnc(N)c2c1-c1ccc(NC(=O)Nc2cc(C(F)(F)F)ccc2F)cc1 [Example 240, N-{4-[4-amino-6-(cyanomethyl)pyrrolo[2,1-f][1,2,4]triazin-5-yl]phenyl}-N′-[2-fluoro-5-(trifluoromethyl)phenyl]urea]	0.1 to 0.5	> 0.5	–	< 1	–	–
1.5 to 5	1.5 to 5	–	–	COCCOCc1cn2ncnc(N)c2c1-c1ccc(NC(=O)Nc2cc(C(F)(F)F)ccc2F)cc1 [Example 157, N-(4-{4-amino-6-[(2-methoxyethoxy)methyl]pyrrolo[2,1-f][1,2,4]triazin-5-yl}phenyl)-N′-[2-fluoro-5-(trifluoromethyl)phenyl]urea]	0.01 to 0.1	0.1 to 0.5	–	–	–	–
–	–	–	–	N#Cc1cn2ncnc(N)c2c1-c1ccc(NC(=O)Nc2cccc(OC(F)(F)F)c2)cc1 [Example 152, N-[4-(4-amino-6-cyanopyrrolo[2,1-f][1,2,4]triazin-5-yl)phenyl]-N′-[3-(trifluoromethoxy)phenyl]urea]	0.1 to 0.5	0.1 to 0.5	–	–	–	–
1.5 to 5	1.5 to 5	–	–	Nc1ncnn2cc(-c3nnco3)c(-c3ccc(NC(=O)Nc4cc(C(F)(F)F)ccc4F)cc3)c12 [Example 163, N-{4-[4-amino-6-(1,3,4-oxadiazol-2-yl)pyrrolo[2,1-f][1,2,4]triazin-5-yl]phenyl}-N′-[2-fluoro-5-(trifluoromethyl)phenyl]urea]	> 0.5	–	–	–	< 2	–
1.5 to 5	1.5 to 5	–	–	Nc1ncnn2cc(-c3nc(CO)co3)c(-c3ccc(NC(=O)Nc4cc(C(F)(F)F)ccn4)cc3)c12 [Example 234, N-(4-{4-amino-6-[4-(hydroxymethyl)-1,3-oxazol-2-yl]pyrrolo[2,1-f][1,2,4]triazin-5-yl}phenyl)-N′-[4-(trifluoromethyl)pyridin-2-yl]urea]	0.01 to 0.1	0.1 to 0.5	–	–	–	–
5 to 10	5 to 10	–	–	N#Cc1cn2ncnc(N)c2c1-c1ccc(NC(=O)Nc2cc(F)cc(C(F)(F)F)c2)cc1 [Example 103, N-[4-(4-amino-6-cyanopyrrolo[2,1-f][1,2,4]triazin-5-yl)phenyl]-N′-[3-fluoro-5-(trifluoromethyl)phenyl]urea]	0.01 to 0.1	< 0.1	–	–	–	–
< 1.5	1.5 to 5	> 0.5	–	Nc1ncnn2cc(-c3cnco3)c(-c3ccc(NC(=O)Nc4ccc(F)c(C(F)(F)F)c4)cc3)c12 [Example 162, N-{4-[4-amino-6-(1,3-oxazol-5-yl)pyrrolo[2,1-f][1,2,4]triazin-5-yl]phenyl}-N′-[4-fluoro-3-(trifluoromethyl)phenyl]urea]	0.01 to 0.1	0.1 to 0.5	–	–	–	–
< 1.5	< 1.5	> 0.5	> 0.5	Nc1ncnn2cc(-c3cnco3)c(-c3ccc(NC(=O)Nc4cc(F)cc(C(F)(F)F)c4)cc3)c12 [Example 159, N-{4-[4-amino-6-(1,3-oxazol-5-yl)pyrrolo[2,1-f][1,2,4]triazin-5-yl]phenyl}-N′-[3-fluoro-5-(trifluoromethyl)phenyl]urea]	0.01 to 0.1	0.1 to 0.5	–	–	–	–
5 to 10	5 to 10	–	–	CCOCc1cn2ncnc(N)c2c1-c1ccc(NC(=O)Nc2cc(C(F)(F)F)ccn2)cc1 [Example 218, N-{4-[4-amino-6-(ethoxymethyl)pyrrolo[2,1-f][1,2,4]triazin-5-yl]phenyl}-N′-[4-(trifluoromethyl)pyridine-2-yl]urea]	< 0.01	0.1 to 0.5	–	–	–	–
1.5 to 5	1.5 to 5	–	–	COCc1cn2ncnc(N)c2c1-c1ccc(NC(=O)Nc2cc(C(F)(F)F)ccn2)c(F)c1 [Example 247, N-{4-[4-amino-6-(methoxymethyl)pyrrolo[2,1-f][1,2,4]triazin-5-yl]-2-fluorophenyl}-N′-[4-(trifluoromethyl)pyridin-2-yl]urea]	0.1 to 0.5	0.1 to 0.5	–	–	–	–
1.5 to 5	1.5 to 5	–	–	COCc1cn2ncnc(N)c2c1-c1ccc(NC(=O)Nc2cc(C(F)(F)F)ccc2F)cc1 [Example 100, N-{4-[4-amino-6-(methoxymethyl)pyrrolo[2,1-f][1,2,4]triazin-5-yl]phenyl}-N′-[2-fluoro-5-(trifluoromethyl)phenyl]urea]	> 0.5	–	< 50	–	< 2	> 50
